≈ marks a conversion by molar mass, not a printed value. Like-named read-outs stand apart in the source and are kept apart here.
What was measured:
[1] = tested on: Candidia albicans ATCC 90028; test: Antifungal MIC 50 / MIC 90 alone and combined with Tricide; assay type: cell-based, Candida albicans; conditions: for MIC50 / MIC90 / % decrease MIC 50 / % decrease MIC 90 / MIC 50 combined with Tricide: Candida albicans; for MIC50 / MIC90: ATCC90028, antifungal alone; for MIC50 / MIC90 / Summary % reduction in MIC 50 using Tricide / Summary % reduction in MIC 90 using Tricide: Candidia albicans ATCC 90028; for % decrease MIC 50 / % decrease MIC 90 / MIC 50 combined with Tricide: Tricide […];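 as to all read-outs here: MIC 50 and MIC 90 values are means, and the percent decrease is the drop in MIC when the antifungal is combined with Tricide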
[2] = tested on: Paecilomyces variotti ATCC 36257; test: as above; assay type: cell-based; conditions: for MIC50 / MIC90: ATCC36257
Aspergillus sp. = test: as above; assay type: cell-based; conditions: for % decrease MIC 50 / % decrease MIC 90 / MIC 50 combined with Tricide / MIC 90 combined with Tricide: Aspergillus sp., Tricide 200 ug/ml; for MIC50 / MIC90: Aspergillus, antifungal alone; for MIC50 / MIC90 / Summary % reduction in MIC 50 using Tricide / Summary % reduction in MIC 90 using Tricide: Aspergiullus sp.
Fusarium sp. 1 = test: microbe, parasite or virus in culture; assay type: cell-based; conditions: for Summary % reduction in MIC 50 using Tricide / Summary % reduction in MIC 90 using Tricide: Fasarium sp. 1; for % decrease MIC 50 / % decrease MIC 90 / MIC 90 combined with Tricide / MIC50 / MIC90: Fusarium sp. 1; for % decrease MIC 50 / % decrease MIC 90 / MIC 90 combined with Tricide: Tricide 540 ug/ml; for MIC50 / MIC90: antifungal alone
Fusarium sp. 2 = test: microbe, parasite or virus in culture; assay type: cell-based; conditions: for MIC50 / MIC90: antifungal alone
Fusarium sp. 3 = test: microbe, parasite or virus in culture; assay type: cell-based; conditions: for % decrease MIC 50 / % decrease MIC 90 / MIC 50 combined with Tricide / MIC 90 combined with Tricide: Tricide 540 ug/ml; for MIC50 / MIC90: antifungal alone
Penicillium sp. = test: Antifungal MIC 50 / MIC 90 alone and combined with Tricide; assay type: cell-based; conditions: for % decrease MIC 50 / % decrease MIC 90 / MIC 50 combined with Tricide / MIC 90 combined with Tricide: Tricide 200 ug/ml; for MIC50 / MIC90: antifungal alone
Cladosporium sp. = test: as above; assay type: cell-based; conditions: for MIC50 / MIC90: antifungal alone
Curvularia sp. = test: as above; assay type: cell-based; conditions: for % decrease MIC 50 / % decrease MIC 90 / MIC 50 combined with Tricide / MIC 90 combined with Tricide: Curvilaria sp., Tricide 200 ug/ml; for Summary % reduction in MIC 50 using Tricide / Summary % reduction in MIC 90 using Tricide / MIC50 / MIC90: Curvularia sp.; for MIC50 / MIC90: antifungal alone
[3] = Paecilomyces variotti ATCC36257
[4] = Paecilomyces variotti, Tricide […]

## CC(=O)N1CCN(c2ccc(OCC3COC(Cn4ccnc4)(c4ccc(Cl)cc4Cl)O3)cc2)CC1 (centres unmarked) [Ketoconazole, ketoconazole]
[1]
  MIC50: 0.0313 µg/mL
  MIC90: > 1 µg/mL
  % decrease MIC 50: 100%
  % decrease MIC 90: 100%
  MIC 50 combined with Tricide: 0 µg/mL
  Summary % reduction in MIC 50 using Tricide: 100%
  Summary % reduction in MIC 90 using Tricide: 100%
[2]; [3]
  Summary % reduction in MIC 50 using Tricide: 100%
  Summary % reduction in MIC 90 using Tricide: 75%
[2]; [4]
  % decrease MIC 50: 100%
  % decrease MIC 90: 75%
  MIC 50 combined with Tricide: 0 µg/mL
  MIC 90 combined with Tricide: 0.25 µg/mL
[2]; Paecilomyces
  MIC50: 0.0382 µg/mL
  MIC90: 1 µg/mL
Aspergillus sp.
  % decrease MIC 50: 87.5%
  % decrease MIC 90: 95.8%
  MIC 50 combined with Tricide: 0.25 µg/mL
  MIC 90 combined with Tricide: 0.5 µg/mL
  MIC50: 2 µg/mL
  MIC90: 12 µg/mL
  Summary % reduction in MIC 50 using Tricide: 87.5%
  Summary % reduction in MIC 90 using Tricide: 95.8%
Fusarium sp. 1
  Summary % reduction in MIC 50 using Tricide: >99.9%-100%
  Summary % reduction in MIC 90 using Tricide: 99.9%-100%
  % decrease MIC 50: >99.9-100% ^
  % decrease MIC 90: 99.9-100%^
  MIC 90 combined with Tricide: 0 to 0.05 µg/mL
  MIC50: > 128 µg/mL
  MIC90: > 128 µg/mL
Fusarium sp. 2
  Summary % reduction in MIC 50 using Tricide: >99.5%-100%
  Summary % reduction in MIC 90 using Tricide: 99.9%-100%
  MIC50: 11.2 µg/mL (≈ 21.1 µM)
  MIC90: 64 µg/mL (≈ 120 µM)
Fusarium sp. 2; Tricide 540 ug/ml
  % decrease MIC 50: >99.5-100% ^
  % decrease MIC 90: >99.9-100% ^
Fusarium sp. 3
  Summary % reduction in MIC 50 using Tricide: 100%
  Summary % reduction in MIC 90 using Tricide: 100%
  % decrease MIC 50: 100%
  % decrease MIC 90: 100%
  MIC 50 combined with Tricide: 0 µg/mL
  MIC 90 combined with Tricide: 0 µg/mL
  MIC50: > 128 µg/mL
  MIC90: > 128 µg/mL
Penicillium sp.
  Summary % reduction in MIC 50 using Tricide: 100%
  Summary % reduction in MIC 90 using Tricide: 100%
  % decrease MIC 50: 100%
  % decrease MIC 90: 100%
  MIC 50 combined with Tricide: 0 µg/mL
  MIC 90 combined with Tricide: 0 µg/mL
  MIC50: 0.181 µg/mL
  MIC90: 0.5 µg/mL
Cladosporium sp.
  Summary % reduction in MIC 50 using Tricide: 75%
  Summary % reduction in MIC 90 using Tricide: 94%
  MIC50: 0.5 µg/mL
  MIC90: 2 µg/mL
Cladosporium sp.; Tricide 200 ug/ml
  % decrease MIC 50: >75%
  % decrease MIC 90: 94%
  MIC 90 combined with Tricide: 0.125 µg/mL
Curvularia sp.
  % decrease MIC 50: 96.3-100%^
  % decrease MIC 90: 74-100% ^
  MIC 50 combined with Tricide: 0 to 0.0250 µg/mL
  MIC 90 combined with Tricide: 0 to 0.4 µg/mL
  Summary % reduction in MIC 50 using Tricide: 96.3%-100%
  Summary % reduction in MIC 90 using Tricide: 74%-100%
  MIC50: 0.667 µg/mL
  MIC90: 1.56 µg/mL

## Clc1ccc(COC(Cn2ccnc2)c2ccc(Cl)cc2Cl)c(Cl)c1 (centres unmarked) [Miconazole, miconazole]
[1]
  MIC50: 0.5 µg/mL
  MIC90: > 1 µg/mL
  % decrease MIC 50: 100%
  % decrease MIC 90: 100%
  MIC 50 combined with Tricide: 0 µg/mL
  Summary % reduction in MIC 50 using Tricide: 100%
  Summary % reduction in MIC 90 using Tricide: 100%
[2]; Paecilomyces variotti ATCC 36257, antifungal alone, read-out: MIC 50
  MIC50: 0.0764 µg/mL
[2]; Paecilomyces variotti ATCC 36257, antifungal alone, read-out: MIC 90
  MIC90: > 1 µg/mL
[2]; [3]
  Summary % reduction in MIC 50 using Tricide: 97.4%
[2]; [4]
  % decrease MIC 50: 97.4%
  MIC 50 combined with Tricide: 0.002 µg/mL
  MIC 90 combined with Tricide: >1 µg/mL
Aspergillus sp.
  % decrease MIC 50: 96%
  % decrease MIC 90: 84%
  MIC 50 combined with Tricide: 0.1250 µg/mL
  MIC 90 combined with Tricide: 2 µg/mL
  MIC50: 3.11 µg/mL
  MIC90: 12.4 µg/mL
  Summary % reduction in MIC 50 using Tricide: 96%
  Summary % reduction in MIC 90 using Tricide: 84%
Fusarium sp. 1
  Summary % reduction in MIC 50 using Tricide: >99.8%-100%
  Summary % reduction in MIC 90 using Tricide: 99.8%-100%
  % decrease MIC 50: >99.8-100% ^
  % decrease MIC 90: 99.8-100%^
  MIC 90 combined with Tricide: 0 to 0.05 µg/mL
  MIC50: > 128 µg/mL
  MIC90: > 128 µg/mL
Fusarium sp. 2
  Summary % reduction in MIC 50 using Tricide: >99.9%-100%
  Summary % reduction in MIC 90 using Tricide: 99.9%-100%
  MIC50: > 128 µg/mL
  MIC90: > 128 µg/mL
Fusarium sp. 2; Tricide 540 ug/ml
  % decrease MIC 50: >99.9-100% ^
  % decrease MIC 90: 99.9-100%^
  MIC 90 combined with Tricide: 0.05 µg/mL
Fusarium sp. 3
  Summary % reduction in MIC 50 using Tricide: 100%
  Summary % reduction in MIC 90 using Tricide: 100%
  % decrease MIC 50: 100%
  % decrease MIC 90: 100%
  MIC 50 combined with Tricide: 0 µg/mL
  MIC 90 combined with Tricide: 0 µg/mL
  MIC50: > 128 µg/mL
  MIC90: > 128 µg/mL
Penicillium sp.
  Summary % reduction in MIC 50 using Tricide: 100%
  Summary % reduction in MIC 90 using Tricide: 100%
  % decrease MIC 50: 100%
  % decrease MIC 90: 100%
  MIC 50 combined with Tricide: 0 µg/mL
  MIC 90 combined with Tricide: 0 µg/mL
  MIC50: 0.181 µg/mL
  MIC90: 0.361 µg/mL
Cladosporium sp.
  Summary % reduction in MIC 50 using Tricide: 97%
  Summary % reduction in MIC 90 using Tricide: 98%
  MIC50: 4 µg/mL
  MIC90: 16 µg/mL
Cladosporium sp.; Tricide 200 ug/ml
  % decrease MIC 50: >97%
  % decrease MIC 90: 98%
  MIC 50 combined with Tricide: <0.125 µg/mL
  MIC 90 combined with Tricide: 0.25 µg/mL
Curvularia sp.
  % decrease MIC 50: 99-100% ^
  % decrease MIC 90: 90-100% ^
  MIC 50 combined with Tricide: 0 to 0.0250 µg/mL
  MIC 90 combined with Tricide: 0 to 0.4 µg/mL
  Summary % reduction in MIC 50 using Tricide: 99-100% ^
  Summary % reduction in MIC 90 using Tricide: 90-100% ^
  MIC50: 3.11 µg/mL
  MIC90: 4 µg/mL

Source: patent publication US20100298252A1, “METHODS AND COMPOSITIONS FOR OPHTHALMIC TREATMENT OF FUNGAL AND BACTERIAL INFECTIONS” (priority 2004, published 2010)
